Counter-ions that a name gives are not always drawn.
Assays:
Conditions in all cases: stereoisomer not certain
[1] = RP, Merck Supelco Ascentis Express C18, 100 × 2.1 mm, 2 µm, 40 °C, 0.2 mL/min, estimated dead time 1.1 min; A: water + 0.1% formic acid, pH 3; B: acetonitrile + 0.1% formic acid, pH 3; gradient (min/%B) 0/5 2/5 17/99.9 20/99.9
[2] = as above; remark: listed apart in the source
[3] = RP, Merck Supelco Ascentis Express C18, 100 × 2.1 mm, 2 µm, 40 °C, 0.4 mL/min, estimated dead time 0.55 min; A: water + 0.1% formic acid, pH 3; B: acetonitrile + 0.1% formic acid, pH 3; gradient (min/%B) 0/5 2/5 17/99.9 20/99.9
[4] = RP, Merck Supelco Ascentis Express C18, 100 × 2.1 mm, 2 µm, 40 °C, 0.35 mL/min, estimated dead time 0.63 min; A: water + 0.1% formic acid, pH 3; B: acetonitrile + 0.1% formic acid, pH 3; gradient (min/%B) 0/5 2/5 17/99.9 20/99.9
[5] = RP, Merck Supelco Ascentis Express C18, 100 × 2.1 mm, 2 µm, 40 °C, 0.4 mL/min, estimated dead time 0.55 min; A: water + 0.1% formic acid, pH 3; B: acetonitrile + 0.1% formic acid, pH 3; gradient (min/%B) 0/5 2/5 17/99.9 20/99.9; remark: listed apart in the source
[6] = RP, Merck Supelco Ascentis Express C18, 100 × 2.1 mm, 2 µm, 40 °C, 0.25 mL/min, estimated dead time 0.88 min; A: water + 0.1% formic acid, pH 3; B: acetonitrile + 0.1% formic acid, pH 3; gradient (min/%B) 0/5 2/5 17/99.9 20/99.9
[7] = RP, Merck Supelco Ascentis Express C18, 100 × 2.1 mm, 2 µm, 39 °C, 0.3 mL/min, estimated dead time 0.73 min; A: water + 0.1% formic acid, pH 3; B: acetonitrile + 0.1% formic acid, pH 3; gradient (min/%B) 0/5 2/5 17/99.9 20/99.9

| LC retention time [1] [min] | LC retention time [2] [min] | LC retention time [3] [min] | LC retention time [4] [min] | LC retention time [5] [min] | LC retention time [6] [min] | LC retention time [7] [min] | SMILES |
| --- | --- | --- | --- | --- | --- | --- | --- |
| 11.1 | 11 | 9.62 | 9.86 | 9.6 | 10.5 | 10.2 | CC(CCC(=O)NCCS(=O)(=O)O)C1CCC2C3CCC4CC(O)CCC4(C)C3CCC12C (stereo not given) [LITHOCHOLYLTAURINE] |
| 6.93 | 6.91 | 5.5 | 5.74 | 5.54 | 6.4 | 6.03 | Cc1cc2nc3[nH]c(=O)[nH]c(=O)c3nc2cc1C [LUMICHROME] |
| 4.85 | 4.83 | 2.88 | 3.27 | 2.95 | 4.19 | 3.67 | O=C(O)C(O)c1ccccc1 (stereo not given) [MANDELATE] |
| 7.01 | 7 | 5.49 | 5.75 | 5.53 | 6.46 | 6.06 | COc1ccc2[nH]cc(CCNC(C)=O)c2c1 [MELATONIN] |
| 3.82 | 3.84 | 1.91 | 2.21 | 1.95 | 3.09 | 2.6 | CC(CC(=O)O)CC(=O)O [METHYGLUTARATE] |
| 4.07 | 4.08 | 2.27 | 2.58 | 2.3 | 3.51 | 2.98 | CSCC1OC(n2cnc3c(N)ncnc32)C(O)C1O (stereo not given) [METHYLTHIOADENOSINE] |
| 16.4 | 16.4 | 14.2 | 14.6 | 14.3 | 15.6 | 15 | CCCCCCCCCCCCCC(=O)O [MYRISTATE] |
| 5.58 | 5.58 | 4.21 | 4.44 | 4.24 | 5.08 | 4.71 | CC(C)=CCNc1ncnc2nc[nH]c12 [N6-(DELTA2-ISOPENTENYL)-ADENINE] |
| 1.51 | 1.52 | 0.74 | 0.853 | 0.737 | 1.19 | 1.01 | CC(=O)NC(C)C(=O)O (stereo not given) [N-ACETYLALANINE] |
| 1.91 | 1.92 | 0.937 | 1.09 | 0.95 | 1.52 | 1.26 | CC(=O)NC(CS)C(=O)O (stereo not given) [N-ACETYLCYSTEINE] |
| 5.89 | 5.9 | 4.36 | 4.63 | 4.39 | 5.35 | 4.93 | CC(=O)NC(CC(C)C)C(=O)O (stereo not given) [N-ACETYLLEUCINE] |
| 6.32 | 6.31 | 4.78 | 5.04 | 4.82 | 5.77 | 5.37 | CC(=O)NC(Cc1ccccc1)C(=O)O (stereo not given) [N-ACETYLPHENYLALANINE] |
| 2.76 | 2.77 | 1.39 | 1.58 | 1.46 | 2.22 | 1.89 | CC(=O)N1CCCC1C(=O)O (stereo not given) [N-ACETYLPROLINE] |
| 4.96 | 4.97 | 3.5 | 3.77 | 3.52 | 4.45 | 4.07 | CC(=O)NCCc1c[nH]c2ccc(O)cc12 [N-ACETYLSEROTONIN] |
| 6.55 | 6.55 | 5.08 | 5.32 | 5.1 | 6.02 | 5.64 | CC(=O)NC(Cc1c[nH]c2ccccc12)C(=O)O (stereo not given) [N-ACETYLTRYPTOPHAN] |
| 3.77 | 3.77 | 1.87 | 2.16 | 1.91 | 3.02 | 2.52 | CSCC[C@H](NC=O)C(=O)O [N-FORMYL-L-METHIONINE] |
| 1.62 | 1.63 | 0.79 | 0.91 | 0.8 | 1.3 | 1.05 | CCCCC(N)C(=O)O (stereo not given) [NORLEUCINE] |
| 17.3 | 17.3 | 15.1 | 15.5 | 15.1 | 16.5 | 15.9 | CCCCCCCCC=CCCCCCCCC(=O)OCC(O)CO (stereo not given) [OLEOYL-GLYCEROL] |
| 5 | 4.99 | 3.34 | 3.64 | 3.36 | 4.43 | 4.02 | O=C(O)Cc1ccc(O)cc1 [P-HYDROXYPHENYLACETATE] |
| 17.9 | 17.9 | 15.7 | 16.1 | 15.7 | 17.1 | 16.5 | CCCCCCCCCCCCCCCC(=O)O [PALMITATE] |
| 2.7 | 2.71 | 1.36 | 1.56 | 1.38 | 2.15 | 1.79 | CC(C)(CO)C(O)C(=O)NCCC(=O)O (stereo not given) [PANTOTHENATE] |
| 3.98 | 3.96 | 2.15 | 2.47 | 2.16 | 3.33 | 2.81 | Cn1c(=O)[nH]c2ncn(C)c2c1=O [PARAXANTHINE] |
| 18.2 | 18.1 | 16 | 16.4 | 16.1 | 17.4 | 16.8 | CCCCCCCCCCCC=CCCCCC(=O)[O-] [PETROSELINATE] |
| 5.43 | 5.44 | 3.93 | 4.18 | 3.95 | 4.9 | 4.5 | CC(=O)Oc1ccccc1 [PHENYL ACETATE] |
| 2.23 | 2.26 | 1.1 | 1.26 | 1.11 | 1.77 | 1.46 | NC(Cc1ccccc1)C(=O)O (stereo not given) [PHENYLALANINE] |
| 10.1 | 9.94 | 8.55 | 8.79 | 8.55 | 9.46 | 9.19 | CC(=O)C1CCC2C3CC=C4CC(OS(=O)(=O)O)CCC4(C)C3CCC12C (stereo not given) [PREGNENOLONE SULFATE] |
| 7.01 | 7 | 5.14 | 5.5 | 5.17 | 6.34 | 5.94 | CC(=O)Oc1cccc(O)c1 [RESORCINOL MONOACETATE] |
| 5.39 | 5.38 | 4.23 | 4.41 | 4.24 | 4.94 | 4.65 | Cc1cc2nc3c(=O)[nH]c(=O)nc-3n(CC(O)C(O)C(O)CO)c2cc1C (stereo not given) [RIBOFLAVIN] |
| 6.9 | 6.88 | 5.6 | 5.82 | 5.62 | 6.41 | 6.1 | O=C(C=Cc1ccc(O)c(O)c1)OC(Cc1ccc(O)c(O)c1)C(=O)O (stereo not given) [ROSMARINATE] |

| SMILES | LC retention time [1] [min] | LC retention time [2] [min] | LC retention time [3] [min] | LC retention time [4] [min] | LC retention time [5] [min] | LC retention time [6] [min] | LC retention time [7] [min] |
| --- | --- | --- | --- | --- | --- | --- | --- |
| O=C(O)CCCCCCCCCCCO [OMEGA-HYDROXYDODECANOATE] | 9.68 | 9.68 | 8.13 | 8.4 | 8.17 | 9.11 | 8.71 |
